Measured values: patent US20090197897A1, “Novel Oxadiazole Derivatives and Their Use as Positive Allosteric Modulators of Metabotropic Glutamate Receptors” (Addex Pharma SA, priority 2005, published 2009)

Legend:
[1] = molecular target: T1, rat mGluR5 (Rattus norvegicus, UniProt P31424); test: mGluR5 assay on HEK-expressing rat mGluR5 (fluorescent cell based Ca2+ mobilization assay); settings: HEK-293 cells stably expressing rat mGluR5; no co-addition of glutamate; mean of at least three independent experiments in duplicate; read-out: Ca++ Flux (mean EC50)
T1 construct: expressed in transfected cells
Summary of the method: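 HEK-293 cells stably expressing rat mGluR5, Fluo-4 loaded 60 min, in HEPES buffer pH 7.4 with sulfinpyrazone; compound (0.01 to 60 μM, 0.3% DMSO) added alone, no glutamate co-addition, and Ca2+ fluorescence followed 3 min by FLIPR. Duplicate points; EC50 from four-parameter logistic fit, mean of at least three experiments.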

[2] = tested on: amphetamine-induced locomotor activation in mice; test: Amphetamine model of schizophrenia (amphetamine-induced locomotor activity); type: in vivo; settings: 30 & 50 mg/kg ip, 30 min before amphetamine 3.0 mg/kg s.c., 60 min
Excerpt: Amphetamine-induced increases in locomotor ambulation are well known and are widely used as a model of the positive symptoms of schizophrenia. This model is based on evidence that amphetamine increases motor behaviors and can induce a psychotic state in humans (Yui et al. (2000) Ann NY Acad Sci 914:1-12). Further, it is well known that amphetamine-induced increases in locomotor activity are blocked by antipsychotics drugs that are effective in the treatment of schizophrenia (Arnt (1995) Eur J Pharmacol 283:55-62). […]
Assessment of locomotor (ambulatory) activity: The effects of compounds on amphetamine-induced locomotor activation in mice were tested. […] Locomotor activity (ambulations) was monitored by a videotracking system (VideoTrack, Viewpoint, Champagne au Mont d'Or, France) that recorded the ambulatory movements of mice. […] Mice were placed into the locomotor boxes immediately after the amphetamine injection and their locomotor activity, defined as the distance traveled in centimeters (cm), was measured for 60 minutes. […]
Statistical analyses: Statistical analyses were performed using GraphPad PRISM statistical software (GraphPad, San Diego, Calif., USA). Data were analyzed using one-way analysis of variance (ANOVA) followed by post-hoc Bonferroni-corrected multiple comparisons, where appropriate. […]

[3] = molecular target: T2, mGluR5 (Rattus norvegicus, UniProt P31424); test: mGluR5 binding assay ([3H]-MPEP, rat brain membranes); settings: 3 nM [3H]-MPEP, 1 h at 4° C.
T2 construct: positive allosteric modulators of mGluR5 receptors in native preparations; endogenous in cells; host or cells: primary cortical astrocytes from Sprague-Dawley rat embryos (day 16 to 19)
Excerpt: Activity of compounds of the invention was examined following a radioligand binding technique using whole rat brain and tritiated 2-methyl-6-(phenylethynyl)-pyridine ([^3H]-MPEP) as a ligand following similar methods than those described in Gasparini et al. (2002) Bioorg. Med. Chem. Lett. 12:407-409 and in Anderson et al. (2002) J. Pharmacol. Exp. Ther. 303 (3) 1044-1051.
Cortices were dissected out from brains of 200-300 g Sprague-Dawley rats (Charles River Laboratories, L'Arbresle, France). Tissues were homogenized in 10 volumes (vol/wt) of ice-cold 50 mM Hepes-NaOH (pH 7.4) using a Polytron disrupter (Kinematica AG, Luzern, Switzerland) and centrifuged for 30 min at 40,000 g. (4° C.). […] Protein concentration was determined by the Bradford method (Bio-Rad protein assay, Reinach, Switzerland) with bovine serum albumin as standard.
Membranes were thawed and resuspended in binding buffer containing 20 mM HEPES-NaOH, 3 mM MgCl2, 3 mM CaCl2, 100 mM NaCl, pH 7.4. […] Radioactivity was determined by liquid scintillation spectrometry using a 96-well plate reader (TopCount, Perkin-Elmer, Downers Grove, USA).
The inhibition curves were generated using the Prism GraphPad program (Graph Pad Software Inc, San Diego, USA). […] The mean of IC50 obtained from at least three independent experiments of selected molecules performed in duplicate were calculated.

T1 sequence (P31424 21-1171 isoform P31424-2 limits assumed): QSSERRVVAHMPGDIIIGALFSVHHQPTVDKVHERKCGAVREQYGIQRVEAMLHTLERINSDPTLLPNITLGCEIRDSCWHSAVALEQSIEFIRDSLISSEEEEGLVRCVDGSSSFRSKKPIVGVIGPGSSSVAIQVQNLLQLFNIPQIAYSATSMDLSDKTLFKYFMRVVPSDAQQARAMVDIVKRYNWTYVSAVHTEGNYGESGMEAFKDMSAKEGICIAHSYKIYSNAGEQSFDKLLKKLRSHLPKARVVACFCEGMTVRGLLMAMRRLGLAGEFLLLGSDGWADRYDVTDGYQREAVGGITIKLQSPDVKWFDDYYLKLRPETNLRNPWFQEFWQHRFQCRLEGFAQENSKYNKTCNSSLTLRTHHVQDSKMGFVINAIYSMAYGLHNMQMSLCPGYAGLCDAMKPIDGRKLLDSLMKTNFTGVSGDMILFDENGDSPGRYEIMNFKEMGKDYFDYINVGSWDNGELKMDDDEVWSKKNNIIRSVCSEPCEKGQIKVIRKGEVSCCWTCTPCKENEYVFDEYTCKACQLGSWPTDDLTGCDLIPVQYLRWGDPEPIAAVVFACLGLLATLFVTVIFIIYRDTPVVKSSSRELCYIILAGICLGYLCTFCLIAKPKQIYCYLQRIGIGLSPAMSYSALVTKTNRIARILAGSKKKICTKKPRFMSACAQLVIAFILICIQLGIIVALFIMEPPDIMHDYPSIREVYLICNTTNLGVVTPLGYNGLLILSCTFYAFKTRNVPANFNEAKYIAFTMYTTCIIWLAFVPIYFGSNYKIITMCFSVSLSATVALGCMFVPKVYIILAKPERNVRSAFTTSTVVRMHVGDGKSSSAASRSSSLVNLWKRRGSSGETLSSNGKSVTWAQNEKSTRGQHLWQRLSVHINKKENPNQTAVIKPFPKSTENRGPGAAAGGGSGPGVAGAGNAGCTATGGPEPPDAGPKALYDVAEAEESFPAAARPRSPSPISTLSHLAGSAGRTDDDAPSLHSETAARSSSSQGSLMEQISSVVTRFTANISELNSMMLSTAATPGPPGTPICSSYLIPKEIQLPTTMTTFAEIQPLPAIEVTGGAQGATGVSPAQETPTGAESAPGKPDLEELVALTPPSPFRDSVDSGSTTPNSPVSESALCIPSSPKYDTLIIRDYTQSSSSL
T2 sequence (P31424 21-1203): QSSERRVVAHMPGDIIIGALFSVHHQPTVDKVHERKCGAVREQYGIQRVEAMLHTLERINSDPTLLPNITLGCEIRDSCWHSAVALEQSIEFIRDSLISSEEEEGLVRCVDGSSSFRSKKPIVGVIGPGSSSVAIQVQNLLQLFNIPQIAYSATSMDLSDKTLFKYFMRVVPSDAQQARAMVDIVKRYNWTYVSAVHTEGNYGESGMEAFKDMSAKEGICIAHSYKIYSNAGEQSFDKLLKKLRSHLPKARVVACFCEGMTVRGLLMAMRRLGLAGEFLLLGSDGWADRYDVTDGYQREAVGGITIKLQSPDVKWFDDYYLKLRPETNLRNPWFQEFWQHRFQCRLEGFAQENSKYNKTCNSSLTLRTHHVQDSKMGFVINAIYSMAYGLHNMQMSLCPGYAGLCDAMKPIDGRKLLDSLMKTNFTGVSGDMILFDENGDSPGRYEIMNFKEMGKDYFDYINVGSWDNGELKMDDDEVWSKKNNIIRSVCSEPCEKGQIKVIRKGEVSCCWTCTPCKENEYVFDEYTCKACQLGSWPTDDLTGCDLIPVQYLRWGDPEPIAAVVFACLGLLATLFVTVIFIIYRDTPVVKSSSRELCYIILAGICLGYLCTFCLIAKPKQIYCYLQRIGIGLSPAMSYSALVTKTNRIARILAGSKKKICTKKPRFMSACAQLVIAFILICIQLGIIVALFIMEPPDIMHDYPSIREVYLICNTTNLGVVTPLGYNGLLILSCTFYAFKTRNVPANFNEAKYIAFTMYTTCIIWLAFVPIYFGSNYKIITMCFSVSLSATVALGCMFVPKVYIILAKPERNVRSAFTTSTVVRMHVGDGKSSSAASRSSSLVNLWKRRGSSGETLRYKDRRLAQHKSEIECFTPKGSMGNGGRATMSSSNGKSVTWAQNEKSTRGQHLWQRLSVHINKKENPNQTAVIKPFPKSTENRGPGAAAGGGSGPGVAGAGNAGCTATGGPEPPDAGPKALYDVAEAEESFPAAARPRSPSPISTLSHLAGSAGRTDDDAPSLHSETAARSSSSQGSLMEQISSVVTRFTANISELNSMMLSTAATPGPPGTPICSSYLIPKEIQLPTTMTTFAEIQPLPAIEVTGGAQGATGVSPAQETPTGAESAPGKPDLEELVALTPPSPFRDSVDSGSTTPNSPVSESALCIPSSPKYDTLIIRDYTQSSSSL

Row | EC50 [1] [µM] | IC50 [3] [µM] | SMILES | increase in locomotor activity induced by amphetamine ([2]; listed as compound # 5) | increase in locomotor activity induced by amphetamine ([2]; listed as example 5)
1 | < 1 |  | Cc1oncc1C(=O)N1CCC[C@H](c2nc(-c3ccc(F)cc3)no2)C1 [Example 5, (S)-{3-[3-(4-Fluoro-phenyl)-[1,2,4]oxadiazol-5-yl]-piperidin-1-yl}-(5-methyl-isoxazol-4-yl)-methanone] | significantly attenuated | significantly attenuate
2 | < 1 | < 30 | O=C(c1ccc(F)nc1)N1CCC[C@H](c2nc(-c3ccc(F)cc3)no2)C1 [Example 29, (S)-{3-[3-(4-Fluoro-phenyl)-[1,2,4]oxadiazol-5-yl]-piperidin-1-yl}-(6-fluoro-pyridin-3-yl)-methanone] |  | 
